What was measured:
Test in all cases: Caliper, Mobility shift assay off-chip
[1] = test system: ABL1 (human), P00519 [Q252H]
ABL2 (human) = ABL2 (human) (UniProt P42684)
AKT1 (human) = AKT1 (human) (UniProt P31749)
AKT2 (human) = AKT2 (human) (UniProt P31751)
AKT3 (human) = AKT3 (human) (UniProt Q9Y243)
AURKB (human) = AURKB (human) (UniProt Q96GD4)
BMX (human) = BMX (human) (UniProt P51813)
CAMK2D (human) = CAMK2D (human) (UniProt Q13557); conditions: compound 1.0 µM
CAMK2G (human) = CAMK2G (human) (UniProt Q13555); conditions: compound 1.0 µM
CDK2 (human) = CDK2 (human) (UniProt P24941)
EGFR (human) = EGFR (human) (UniProt P00533)
FER (human) = FER (human) (UniProt P16591)
[2] = test system: FLT3 (human), P36888 [D835Y]
IKBKB (human) = IKBKB (human) (UniProt O14920)
IRAK4 (human) = IRAK4 (human) (UniProt Q9NWZ3)
LYN (human) = LYN (human) (UniProt P07948)
MAPK12 (human) = MAPK12 (human) (UniProt P53778)
MAPKAPK2 (human) = MAPKAPK2 (human) (UniProt P49137)
MAPKAPK3 (human) = MAPKAPK3 (human) (UniProt Q16644)
NEK2 (human) = NEK2 (human) (UniProt P51955)
PAK2 (human) = PAK2 (human) (UniProt Q13177)
PIM1 (human) = PIM1 (human) (UniProt P11309)
PRKCA (human) = PRKCA (human) (UniProt P17252)
PRKCB1 (human) = PRKCB1 (human) (UniProt P05771)
PRKCB2 (human) = PRKCB2 (human) (UniProt P05771)
PRKCD (human) = PRKCD (human) (UniProt Q05655)
PRKCE (human) = PRKCE (human) (UniProt Q02156)
PRKD3 (human) = PRKD3 (human) (UniProt O94806)
RPS6KA1 KD1 KD2 (human) = RPS6KA1 KD1 KD2 (human) (UniProt Q15418)
RPS6KA2 KD1 KD2 (human) = RPS6KA2 KD1 KD2 (human) (UniProt Q15349)
SGK2 (human) = SGK2 (human) (UniProt Q9HBY8)
SRC (human) = SRC (human) (UniProt P12931)
STK3 (human) = STK3 (human) (UniProt Q13188)
SYK (human) = SYK (human) (UniProt P43405)

Sequence of SRC (human) (P12931 whole entry, looked up): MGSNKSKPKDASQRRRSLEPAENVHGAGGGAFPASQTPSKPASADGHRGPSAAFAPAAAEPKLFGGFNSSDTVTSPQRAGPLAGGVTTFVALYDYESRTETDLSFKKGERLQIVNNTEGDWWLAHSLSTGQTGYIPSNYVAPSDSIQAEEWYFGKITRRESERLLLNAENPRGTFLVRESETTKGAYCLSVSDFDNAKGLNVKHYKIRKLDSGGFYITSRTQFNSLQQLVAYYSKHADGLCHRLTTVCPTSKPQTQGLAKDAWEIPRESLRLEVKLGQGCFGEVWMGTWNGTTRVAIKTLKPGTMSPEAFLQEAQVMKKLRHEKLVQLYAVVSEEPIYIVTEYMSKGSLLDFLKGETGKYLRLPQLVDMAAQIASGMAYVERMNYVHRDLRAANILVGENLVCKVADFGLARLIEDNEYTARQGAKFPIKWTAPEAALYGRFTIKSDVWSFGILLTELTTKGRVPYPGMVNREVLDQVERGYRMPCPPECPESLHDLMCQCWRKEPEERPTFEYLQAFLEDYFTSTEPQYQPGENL
Sequence of STK3 (human) (Q13188 whole entry, looked up): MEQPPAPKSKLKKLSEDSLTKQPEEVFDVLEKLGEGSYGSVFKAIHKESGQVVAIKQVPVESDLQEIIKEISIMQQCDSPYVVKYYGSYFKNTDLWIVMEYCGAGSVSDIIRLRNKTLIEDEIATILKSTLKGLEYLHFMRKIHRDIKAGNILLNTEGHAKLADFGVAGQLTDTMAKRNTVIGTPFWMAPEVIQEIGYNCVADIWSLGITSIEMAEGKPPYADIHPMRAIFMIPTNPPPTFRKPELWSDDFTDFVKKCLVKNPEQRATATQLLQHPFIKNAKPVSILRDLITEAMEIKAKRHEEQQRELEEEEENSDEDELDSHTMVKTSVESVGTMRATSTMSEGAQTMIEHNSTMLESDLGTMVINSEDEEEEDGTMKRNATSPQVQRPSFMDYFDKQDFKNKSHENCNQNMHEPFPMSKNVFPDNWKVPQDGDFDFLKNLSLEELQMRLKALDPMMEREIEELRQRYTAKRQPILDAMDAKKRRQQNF
Sequence of FER (human) (P16591 whole entry, looked up): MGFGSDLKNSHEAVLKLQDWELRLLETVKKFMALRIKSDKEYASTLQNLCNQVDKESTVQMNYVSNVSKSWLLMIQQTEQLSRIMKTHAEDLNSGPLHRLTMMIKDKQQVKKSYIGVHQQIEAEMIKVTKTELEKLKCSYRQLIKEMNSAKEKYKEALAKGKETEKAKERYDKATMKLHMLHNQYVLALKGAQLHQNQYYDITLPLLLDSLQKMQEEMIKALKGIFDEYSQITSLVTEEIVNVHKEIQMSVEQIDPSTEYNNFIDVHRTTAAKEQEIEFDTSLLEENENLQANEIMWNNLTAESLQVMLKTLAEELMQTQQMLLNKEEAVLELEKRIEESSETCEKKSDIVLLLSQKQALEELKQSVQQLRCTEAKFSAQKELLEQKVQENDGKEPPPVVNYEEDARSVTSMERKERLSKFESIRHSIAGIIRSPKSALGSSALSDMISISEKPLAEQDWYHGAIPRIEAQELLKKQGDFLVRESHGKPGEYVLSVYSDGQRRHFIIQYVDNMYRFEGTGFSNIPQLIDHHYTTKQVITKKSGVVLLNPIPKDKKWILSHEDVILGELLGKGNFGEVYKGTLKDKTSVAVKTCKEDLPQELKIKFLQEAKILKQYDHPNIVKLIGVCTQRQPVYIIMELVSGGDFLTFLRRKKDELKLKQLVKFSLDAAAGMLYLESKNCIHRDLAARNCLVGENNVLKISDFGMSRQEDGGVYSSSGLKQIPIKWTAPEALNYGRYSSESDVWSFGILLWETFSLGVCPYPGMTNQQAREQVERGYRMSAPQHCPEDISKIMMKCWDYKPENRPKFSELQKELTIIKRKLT
Sequence of NEK2 (human) (P51955 whole entry, looked up): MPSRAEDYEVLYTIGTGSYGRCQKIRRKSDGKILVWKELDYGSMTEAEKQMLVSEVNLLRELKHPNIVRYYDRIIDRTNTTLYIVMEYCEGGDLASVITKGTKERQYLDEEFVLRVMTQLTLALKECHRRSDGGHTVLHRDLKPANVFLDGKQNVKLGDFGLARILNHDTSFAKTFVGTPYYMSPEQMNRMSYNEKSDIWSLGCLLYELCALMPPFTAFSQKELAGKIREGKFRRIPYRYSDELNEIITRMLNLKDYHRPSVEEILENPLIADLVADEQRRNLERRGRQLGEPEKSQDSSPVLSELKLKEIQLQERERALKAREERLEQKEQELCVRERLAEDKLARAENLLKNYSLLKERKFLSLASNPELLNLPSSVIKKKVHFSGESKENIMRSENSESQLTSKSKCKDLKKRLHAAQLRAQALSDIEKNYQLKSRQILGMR
Sequence of BMX (human) (P51813 whole entry, looked up): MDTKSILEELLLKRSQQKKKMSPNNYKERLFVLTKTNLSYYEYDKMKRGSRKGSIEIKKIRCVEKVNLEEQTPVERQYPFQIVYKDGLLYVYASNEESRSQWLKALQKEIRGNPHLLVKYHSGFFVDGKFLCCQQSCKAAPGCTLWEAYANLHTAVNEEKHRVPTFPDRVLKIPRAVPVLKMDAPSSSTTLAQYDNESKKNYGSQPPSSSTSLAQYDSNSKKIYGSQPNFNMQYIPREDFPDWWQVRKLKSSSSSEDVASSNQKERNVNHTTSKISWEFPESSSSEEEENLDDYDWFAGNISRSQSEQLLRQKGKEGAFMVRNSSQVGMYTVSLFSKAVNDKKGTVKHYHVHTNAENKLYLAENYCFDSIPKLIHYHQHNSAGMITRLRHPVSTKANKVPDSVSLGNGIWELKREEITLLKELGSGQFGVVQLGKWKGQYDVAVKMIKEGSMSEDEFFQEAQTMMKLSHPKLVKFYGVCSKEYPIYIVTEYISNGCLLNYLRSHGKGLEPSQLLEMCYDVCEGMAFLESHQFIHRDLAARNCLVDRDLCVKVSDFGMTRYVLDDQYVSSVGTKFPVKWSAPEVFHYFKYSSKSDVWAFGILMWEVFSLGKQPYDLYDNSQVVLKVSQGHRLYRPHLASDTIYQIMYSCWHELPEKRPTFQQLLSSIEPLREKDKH
Sequence of RPS6KA1 KD1 KD2 (human) (Q15418 whole entry, looked up): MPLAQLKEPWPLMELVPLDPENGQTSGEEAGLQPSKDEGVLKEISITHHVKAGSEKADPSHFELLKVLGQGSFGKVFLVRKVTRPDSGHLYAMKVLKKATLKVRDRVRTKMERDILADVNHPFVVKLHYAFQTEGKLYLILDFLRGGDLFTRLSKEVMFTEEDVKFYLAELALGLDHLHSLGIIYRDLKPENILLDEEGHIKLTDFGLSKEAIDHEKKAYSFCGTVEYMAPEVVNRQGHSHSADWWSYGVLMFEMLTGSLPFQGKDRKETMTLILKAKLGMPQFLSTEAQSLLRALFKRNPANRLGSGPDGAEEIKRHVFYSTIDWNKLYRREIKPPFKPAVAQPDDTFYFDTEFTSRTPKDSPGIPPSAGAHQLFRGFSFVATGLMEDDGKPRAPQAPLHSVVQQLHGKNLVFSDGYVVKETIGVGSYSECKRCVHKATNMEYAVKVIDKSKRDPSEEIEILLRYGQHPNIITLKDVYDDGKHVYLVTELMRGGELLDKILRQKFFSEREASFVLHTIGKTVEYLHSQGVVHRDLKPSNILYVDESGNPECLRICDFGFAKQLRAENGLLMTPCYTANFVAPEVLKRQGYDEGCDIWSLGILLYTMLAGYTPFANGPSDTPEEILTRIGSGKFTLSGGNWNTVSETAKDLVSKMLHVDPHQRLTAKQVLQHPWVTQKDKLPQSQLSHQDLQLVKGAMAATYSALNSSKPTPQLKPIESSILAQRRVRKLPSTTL
Sequence of PAK2 (human) (Q13177 whole entry, looked up): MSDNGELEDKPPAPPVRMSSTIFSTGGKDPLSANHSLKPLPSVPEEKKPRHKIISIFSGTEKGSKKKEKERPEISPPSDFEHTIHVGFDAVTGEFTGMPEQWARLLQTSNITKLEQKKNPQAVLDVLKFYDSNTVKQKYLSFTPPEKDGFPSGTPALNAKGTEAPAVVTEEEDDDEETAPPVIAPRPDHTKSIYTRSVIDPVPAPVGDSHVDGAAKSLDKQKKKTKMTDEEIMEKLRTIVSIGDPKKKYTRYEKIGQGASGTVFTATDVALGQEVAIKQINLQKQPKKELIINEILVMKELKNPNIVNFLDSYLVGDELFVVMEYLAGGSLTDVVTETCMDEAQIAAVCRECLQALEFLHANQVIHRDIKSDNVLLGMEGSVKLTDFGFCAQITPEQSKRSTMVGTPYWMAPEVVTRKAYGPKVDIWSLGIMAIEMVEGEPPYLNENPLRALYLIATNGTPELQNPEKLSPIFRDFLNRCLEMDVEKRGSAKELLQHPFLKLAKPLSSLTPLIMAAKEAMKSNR
Sequence of AKT2 (human) (P31751 whole entry, looked up): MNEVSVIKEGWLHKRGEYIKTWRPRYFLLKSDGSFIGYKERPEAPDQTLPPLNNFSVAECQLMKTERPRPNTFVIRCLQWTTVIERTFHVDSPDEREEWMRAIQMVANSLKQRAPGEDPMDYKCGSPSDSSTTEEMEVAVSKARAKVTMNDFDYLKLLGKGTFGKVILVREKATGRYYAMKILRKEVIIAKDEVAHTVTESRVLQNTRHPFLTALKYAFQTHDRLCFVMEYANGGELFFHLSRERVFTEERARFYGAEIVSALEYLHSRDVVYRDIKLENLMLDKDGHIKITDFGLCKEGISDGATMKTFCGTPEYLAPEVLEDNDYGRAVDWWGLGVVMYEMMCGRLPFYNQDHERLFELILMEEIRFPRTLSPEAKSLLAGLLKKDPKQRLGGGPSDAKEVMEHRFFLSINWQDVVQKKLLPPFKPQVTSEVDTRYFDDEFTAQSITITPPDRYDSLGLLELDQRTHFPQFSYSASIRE
Sequence of PIM1 (human) (P11309 whole entry, looked up): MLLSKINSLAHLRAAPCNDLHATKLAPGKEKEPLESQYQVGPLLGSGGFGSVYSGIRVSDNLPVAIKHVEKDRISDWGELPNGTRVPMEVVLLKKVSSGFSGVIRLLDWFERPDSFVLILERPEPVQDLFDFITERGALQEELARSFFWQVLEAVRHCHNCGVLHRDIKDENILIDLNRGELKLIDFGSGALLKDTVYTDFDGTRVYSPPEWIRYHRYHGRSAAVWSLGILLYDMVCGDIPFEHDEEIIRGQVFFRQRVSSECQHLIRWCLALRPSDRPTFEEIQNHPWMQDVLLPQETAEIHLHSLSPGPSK

SMILES: CN(c1ccc2ccc3ncc(-c4cnn(C)c4)cc3c(=O)c2c1)S(=O)(=O)NCc1ccccn1
- inhibition ([1]; compound 0.1 µM): 6.9%
- inhibition ([1]; compound 1.0 µM): 51.8%
- inhibition (ABL2 (human); compound 0.1 µM): -2.4%
- inhibition (ABL2 (human); compound 1.0 µM): 18%
- inhibition (AKT1 (human); compound 0.1 µM): -4.1%
- inhibition (AKT1 (human); compound 1.0 µM): 6.2%
- inhibition (AKT2 (human); compound 0.1 µM): -4.1%
- inhibition (AKT2 (human); compound 1.0 µM): -15.8%
- inhibition (AKT3 (human); compound 0.1 µM): 6.2%
- inhibition (AKT3 (human); compound 1.0 µM): 5.2%
- inhibition (AURKB (human); compound 0.1 µM): 37.1%
- inhibition (AURKB (human); compound 1.0 µM): 80.7%
- inhibition (BMX (human); compound 0.1 µM): 1.8%
- inhibition (BMX (human); compound 1.0 µM): 8%
- inhibition (CAMK2D (human)): -1.3%
- inhibition (CAMK2G (human)): 0.4%
- inhibition (CDK2 (human); compound 0.1 µM): 3.1%
- inhibition (CDK2 (human); compound 1.0 µM): 4.8%
- inhibition (EGFR (human); compound 0.1 µM): -4.8%
- inhibition (EGFR (human); compound 1.0 µM): 7%
- inhibition (FER (human); compound 0.1 µM): 24.1%
- inhibition (FER (human); compound 1.0 µM): -2.5%
- inhibition ([2]; compound 0.1 µM): 49.8%
- inhibition ([2]; compound 1.0 µM): 86.5%
- inhibition (IKBKB (human); compound 0.1 µM): 10%
- inhibition (IKBKB (human); compound 1.0 µM): 18.6%
- inhibition (IRAK4 (human); compound 0.1 µM): 7%
- inhibition (IRAK4 (human); compound 1.0 µM): 16.1%
- inhibition (LYN (human); compound 0.1 µM): 2.5%
- inhibition (LYN (human); compound 1.0 µM): 25.1%
- inhibition (MAPK12 (human); compound 0.1 µM): -6%
- inhibition (MAPK12 (human); compound 1.0 µM): 0.4%
- inhibition (MAPKAPK2 (human); compound 0.1 µM): -0.4%
- inhibition (MAPKAPK2 (human); compound 1.0 µM): 2.9%
- inhibition (MAPKAPK3 (human); compound 0.1 µM): -0.1%
- inhibition (MAPKAPK3 (human); compound 1.0 µM): -2.3%
- inhibition (NEK2 (human); compound 0.1 µM): -6%
- inhibition (NEK2 (human); compound 1.0 µM): -4.9%
- inhibition (PAK2 (human); compound 0.1 µM): 10.2%
- inhibition (PAK2 (human); compound 1.0 µM): 5.3%
- inhibition (PIM1 (human); compound 0.1 µM): -2.7%
- inhibition (PIM1 (human); compound 1.0 µM): 2.1%
- inhibition (PRKCA (human); compound 0.1 µM): 0.1%
- inhibition (PRKCA (human); compound 1.0 µM): -10.6%
- inhibition (PRKCB1 (human); compound 0.1 µM): -7.7%
- inhibition (PRKCB1 (human); compound 1.0 µM): 8.8%
- inhibition (PRKCB2 (human); compound 0.1 µM): 2.8%
- inhibition (PRKCB2 (human); compound 1.0 µM): 8.1%
- inhibition (PRKCD (human); compound 0.1 µM): -0.8%
- inhibition (PRKCD (human); compound 1.0 µM): 2.2%
- inhibition (PRKCE (human); compound 0.1 µM): 8.8%
- inhibition (PRKCE (human); compound 1.0 µM): 3.9%
- inhibition (PRKD3 (human); compound 0.1 µM): 8%
- inhibition (PRKD3 (human); compound 1.0 µM): 9.4%
- inhibition (RPS6KA1 KD1 KD2 (human); compound 0.1 µM): -2.7%
- inhibition (RPS6KA1 KD1 KD2 (human); compound 1.0 µM): 2.1%
- inhibition (RPS6KA2 KD1 KD2 (human); compound 0.1 µM): -5.9%
- inhibition (RPS6KA2 KD1 KD2 (human); compound 1.0 µM): 9.6%
- inhibition (SGK2 (human); compound 0.1 µM): 1.8%
- inhibition (SGK2 (human); compound 1.0 µM): 3.7%
- inhibition (SRC (human); compound 0.1 µM): -3.2%
- inhibition (SRC (human); compound 1.0 µM): 14.2%
- inhibition (STK3 (human); compound 0.1 µM): -6%
- inhibition (STK3 (human); compound 1.0 µM): 7.6%
- inhibition (SYK (human); compound 0.1 µM): 8.7%
- inhibition (SYK (human); compound 1.0 µM): 15.8%

Reference: the kinase profiling compilation of Christmann-Franck et al. (2016)
